Reference: article PMC9737981, “Molecular Hybridization Strategy on the Design, Synthesis, and Structural Characterization of Ferrocene-N-acyl Hydrazones as Immunomodulatory Agents” (Molecules, 2022)

Assays:
[1] = test system: IL-1β; assay: IL-1β production by peritoneal macrophages stimulated with LPS + IFN-γ (ELISA); type: cell-based, BALB/c mice; conditions: 10, 20 and 40 µM, 24 h, p < 0.05
Description: (§1) Immortalized J774 macrophages (2 × 10^5 cells/well) or peritoneal macrophages (2 × 10^5 cells/well) were incubated in 96-well plates in a DMEM medium supplemented with 10% FBS and 50 µg/mL of gentamicin, in triplicate, stimulated or not with LPS (500 ng/mL) and IFN-γ (5 ng/mL), and treated or not with different concentrations of the evaluated ferrocenyl-N-acyl hydrazones. The cells were incubated for 4 or 24 h at 37 °C and 5% CO2. Cell-free supernatants were collected after 4 h (for TNFα measurement) and 24 h (for IL-1β, TNFα, and nitrite quantifications), and kept at −80 °C until use.
(§2) The dosage of cytokines IFN-γ, IL-1β, IL-2, IL-4, and TNFα was performed from the supernatant of peritoneal macrophages or splenocytes were determined by enzyme-linked immunosorbent assay (ELISA), using DuoSet kits from R&D Systems, according to the manufacturer’s instructions. Nitric oxide production was estimated in macrophage culture supernatants harvested at 24 h using the Griess method for nitrite quantification.

[2] = test system: peritoneal macrophages; assay: Cytotoxicity to peritoneal macrophages activated with LPS + IFNγ (Alamar Blue); type: cell-based, BALB/c mice; conditions: all concentrations tested (10, 20, 40 µM)
Description: The second set of experiments was performed using peritoneal macrophages activated with LPS (500 ng/mL, Sigma-Aldrich) and IFNγ (5 ng/mL; Sigma-Aldrich).
Peritoneal exudate macrophages were obtained by washing, with a cold DMEM medium, the peritoneal cavity of BALB/c mice 4–5 days after injection of 3% thioglycolate (Sigma-Aldrich) in saline (1.5 mL per mouse). Cells were seeded into 96-well plates at a cell density of 1 × 10^5 cells/well in a DMEM medium supplemented with 10% FBS and 50 µg/mL of gentamicin and incubated for 24 h at 37 °C and 5% CO2. […] At the end of treatment, 20 µL/well of Alamar Blue (Invitrogen) were added to the plates for 10 h. Colorimetric readings were performed at 570 and 600 nm using a SpectraMax 190 Microplate Reader (Molecular Devices, Sunnyvale, CA, USA).

[3] = test system: carrageenan-induced acute peritonitis; assay: Carrageenan-induced acute peritonitis (neutrophil migration); type: in vivo, BALB/c mice; conditions: 100 mg/kg orally 24 and 1 h before carrageenan; compared to vehicle
Description: Next, animals were challenged with a 250 μL injection of carrageenan (1 mg/mL; intraperitoneal route). After 4 h, animals were euthanized and peritoneal exudates were harvested by peritoneal lavage using 2.5 mL of saline solution. Cells were centrifuged at 400× g for 10 min, at 4 °C. The pellet was resuspended in saline (1 mL). Total leukocytes in the peritoneal fluid were determined in a Neubauer chamber after dilution in Trypan blue stain. Differential counting of neutrophils was carried out in rapid panotype-stained cytospin preparations. A differential count of 300 cells was made in a blinded fashion and according to standard morphologic criteria.

[4] = test system: IFN-γ; assay: IFN-γ production by splenocytes stimulated with concanavalin A (ELISA); type: cell-based, BALB/c mice; conditions: 10, 20, 40 µM; Con A 5 µg/mL; 24 h
Description: (§3) BALB/c splenocyte suspensions were prepared in a DMEM medium supplemented with FBS and gentamicin. Splenocytes (5 × 10^6 cells/well) were plated in 24-well plates, in triplicate, and stimulated or not with concanavalin A (Con A; 5 µg/mL, Sigma-Aldrich). To evaluate lymphocyte function, splenocytes were activated in the absence or presence of various concentrations of SintMed149 and SintMed150 (10, 20, and 40 µM). After 24 h of treatment, cell-free supernatants were collected and kept at −80 °C until use.
as §2

[5] = Acute toxicity in mice (single oral dose); type: in vivo, BALB/c mice; conditions: for Changes in the eyes / Changes in the fur / Changes in the skin / Coma / Convulsions / Diarrhea / Lethargy / Salivation / Sleep / Tremors: observed daily for 14 days; for Mortality or signs of toxicity: 2 weeks
Description: Male BALB/c mice (6–8 weeks of age; n = 6/group) were randomized into three groups and treated orally with a single dose of SintMed150 (50 or 100 mg/kg) or vehicle (solution containing 30% sorbitol, 10 % Tween 80, and 60% saline). Animals were monitored for signs of general toxicity for 2 weeks after treatment. Observations involved changes in eyes, fur, and skin, and the occurrence of tremors, salivation, convulsions, diarrhea, sleep, lethargy, and coma. Body weights were taken and recorded at days 0, 7, and 14.

[6] = test system: IL-2; assay: IL-2 production by splenocytes stimulated with concanavalin A (ELISA); type: cell-based, BALB/c mice; conditions: 10, 20, 40 µM; Con A 5 µg/mL; 24 h
Description: as §3, §2

[7] = test system: J774 macrophages; assay: Cytotoxicity to J774 macrophages (Alamar Blue); type: cell-based; conditions: 72 h, read-out: CC50 (µM) JJ74
Description: (§4) J774 macrophages were seeded into 96-well plates at a cell density of 1 × 10^4 cells/well in a DMEM medium supplemented with 10% fetal bovine serum (FBS; GIBCO) and 50 µg/mL of gentamicin (Life Technologies, Carlsbad, CA, USA) and incubated for 24 h at 37 °C and 5% CO2. After that time, each compound was added in six concentrations (50–1.56 µM), in triplicate, and incubated for 72 h. At the end of treatment, 20 µL/well of Alamar Blue (Invitrogen) was added to the plates for 4 h. […]
(§5) As a positive control, gentian violet was used at concentrations ranging from 0.04 to 10 µM. CC50 values were calculated using data from three independent experiments.
(§6) To determine the cytotoxicity concentration of 50% of J774 macrophages (CC50), we used non-linear regression. One-way analysis of variance and Newman–Keuls multiple comparison tests were employed by using Graph Pad Prism version 8.0.1 (Graph Pad Software; San Diego, CA, USA). Differences were considered significant when the values of p were < 0.05. The data are representative of at least two or three experiments.

[8] = test system: LPS-induced endotoxic shock; assay: LPS-induced endotoxin shock (survival); type: in vivo, BALB/c mice
Description: Groups of five male BALB/c mice (4 weeks of age) were used for the LPS lethality assays. Mice were treated with different doses of SintMed150 (50 or 100 mg/kg), dexamethasone (25 mg/kg), or vehicle (solution containing 30% sorbitol, 10% Tween 80, and 60% saline), by intraperitoneal (i.p.) route. Ninety minutes later, animals were challenged with 600 µg of LPS (from serotype 0111:B4 Escherichia coli, Sigma-Aldrich) in saline, by i.p. route. The survival rate was then monitored daily during 4 days.

[9] = test system: IL-4; assay: IL-4 production by splenocytes stimulated with concanavalin A (ELISA); type: cell-based, BALB/c mice; conditions: 10, 20, 40 µM; Con A 5 µg/mL; 24 h
Description: as §3, §2

[10] = test system: nitrite production; assay: Nitrite production by activated peritoneal macrophages (Griess); type: cell-based, BALB/c mice; conditions: 10, 20 and 40 µM; LPS + IFN-γ; p < 0.05
Description: as §1, §2

[11] = test system: TNFα; assay: TNFα production by peritoneal macrophages stimulated with LPS + IFN-γ (ELISA); type: cell-based, BALB/c mice; conditions: 10, 20 and 40 µM, 4 h, p < 0.05
Description: as §1, §2

[12] = test system: nitric oxide production; assay: Inhibition of nitric oxide (nitrite) production in J774 macrophages stimulated with LPS + IFN-γ (Griess); type: cell-based; conditions: 24 h incubation with compounds and LPS plus IFN-γ
Description: as §1, §2

[13] = Cytotoxicity to J774 macrophages (Alamar Blue); type: cell-based; conditions: mouse, read-out: CC50 (µM) JJ74
Description: as §4, §5, §6

In the case of `O=C(N/N=C/[c-]1cccc1)c1ccccc1Oc1ccccc1.[Fe+2].c1cc[cH-]c1` [SintMed150, (E)-N′-(Ferrocenylmethylidene)-2-phenoxybenzohydrazide], the IL-1β production [1] is reported as “inhibitory effect”, the “Cytotoxicity (cell viability) in peritoneal macrophages” value [2] is reported as “not cytotoxic” and the “Reduction in neutrophil migration” value [3] is reported as 44.6%. The IFN-γ levels [4] was “performed the same feat”, the “Changes in the eyes” value ([5]; 50 mg/kg single oral dose) was “No changes” and the “Changes in the fur” value ([5]; 50 mg/kg single oral dose) was “No changes”. The “Changes in the skin” value ([5]; 50 mg/kg single oral dose) was “No changes”, the Coma ([5]; 50 mg/kg single oral dose) was “Absent” and the Convulsions ([5]; 50 mg/kg single oral dose) was “Absent”. For the same compound, the Diarrhea ([5]; 50 mg/kg single oral dose) was “Absent”, the Lethargy ([5]; 50 mg/kg single oral dose) was “Absent” and the Salivation ([5]; 50 mg/kg single oral dose) was “Absent”. For the same compound, the Sleep ([5]; 50 mg/kg single oral dose) was “Usual”, the Tremors ([5]; 50 mg/kg single oral dose) was “Absent” and the Body weight ([5]; 50 mg/kg, day 0) was 20.9 (±1.1). For the same compound, the Body weight ([5]; 50 mg/kg, day 7) was 21.1 (±1.1), the Body weight ([5]; 50 mg/kg, day 14) was 21.7 (±0.9) and the “Changes in the eyes” value ([5]; 100 mg/kg single oral dose) was “No changes”. The “Changes in the fur” value ([5]; 100 mg/kg single oral dose) was “No changes”, the “Changes in the skin” value ([5]; 100 mg/kg single oral dose) was “No changes” and the Coma ([5]; 100 mg/kg single oral dose) was “Absent”. For the same compound, the Convulsions ([5]; 100 mg/kg single oral dose) was “Absent”, the Diarrhea ([5]; 100 mg/kg single oral dose) was “Absent” and the Lethargy ([5]; 100 mg/kg single oral dose) was “Absent”. For the same compound, the Salivation ([5]; 100 mg/kg single oral dose) was “Absent”, the Sleep ([5]; 100 mg/kg single oral dose) was “Usual” and the Tremors ([5]; 100 mg/kg single oral dose) was “Absent”. For the same compound, the Body weight ([5]; 100 mg/kg, day 0) was 20.1 (±0.8), the Body weight ([5]; 100 mg/kg, day 7) was 20.4 (±0.7) and the Body weight ([5]; 100 mg/kg, day 14) was 21.0 (±0.7). The “Mortality or signs of toxicity” value ([5]; single oral dose 50 mg/kg) was “did not cause mortality or the appearance of any sign of toxicity”, the “Mortality or signs of toxicity” value ([5]; single oral dose 100 mg/kg) was “did not cause mortality or the appearance of any sign of toxicity” and the “Body weight compared to vehicle-treated mice” value ([5]; single oral dose 50 or 100 mg/kg) was “no difference in body weight”. The IL-2 levels [6] was “significant and concentration-dependent reduction”, the CC50 [7] was > 50 µM and the Survival ([8]; 50 mg/kg, third day after lethal LPS) was “already died”. For the same compound, the Survival ([8]; 100 mg/kg, fourth day after lethal LPS, p < 0.05) was 20%, the “Survival time in comparison with the vehicle group” value ([8]; 50 or 100 mg/kg, lethal LPS) was “longer survival time” and the IL-4 levels [9] was “did not significantly reduce”. The Nitrite production [10] was “inhibited, in a concentration-dependent manner”, the TNF production [11] was “inhibitory effect” and the “Inhibition of NO (%) Production at 40 μM” value [12] was 74.2 (±0.7) %.
In the case of `CN(C)c1ccc(C(=C2C=CC(=[N+](C)C)C=C2)c2ccc(N(C)C)cc2)cc1` [GV, gentian violet, reference compound], the CC50 at 72 h [13] is reported as 0.8 µM.
